Assay results taken from patent US7655677B2, “Composition and method for controlling house insect pest” (priority 2002, dated 2010).

How the values were obtained:
Format in all cases: in vivo
Coptotermes formosanus [1] = experiment: Test Example 24: treated filter paper in Petri dish, termite mortality on 21st or 28th day
Description: (§1) Mortality (%)=(Number of dead termite workers/15 termite workers)×100
(§2) Further, by the Colby's formula, the theoretical value (%) of mortality can be calculated. In a case where the actual mortality (%) is higher than the theoretical value (%), it can be said that the composition of the present invention has a synergistic effect for controlling the house insect pest.
A filter paper having a diameter of 80 mm was placed in a plastic Petri dish, and 1 ml of a pesticide solution having a predetermined concentration was dropped thereon, whereupon 10 termite workers (Coptotermes formosanus) were released, and a cover was put on the Petri dish. This plastic Petri dish was put in a container having wet cotton laid over the bottom and maintained at room temperature of 25° C. On 21 or 28th day after the treatment, the number of dead termites in the Petri dish was examined, and the mortality was calculated in the same manner as Test Example 1.

Reticulitermes speratus [2] = experiment: Test Example 3: treated filter paper in Petri dish, termite mortality after 37 days; conditions: Reticulitermes speratus, 888 h
Description: as §1, §2
(§3) A filter paper having a diameter of 80 mm was placed in a plastic Petri dish, and 1 ml of a pesticide solution having a predetermined concentration, was dropped thereon. After the treatment, the solvent was sufficiently evaporated, and then, 1 ml of distilled water was impregnated to the treated filter paper, whereupon 10 termite workers (Reticulitermes speratus) were released. The plastic Petri dish was placed in a container having wet cotton laid over the bottom, and the container was maintained at 25° C. for 37 days, whereupon the number of dead termites in the Petri dish was examined, and the mortality was calculated in the same manner as in Test Example 1.

Reticulitermes speratus [3] = experiment: Test Example 1: treated filter paper in Petri dish, termite mortality after 13 days; conditions: 312 h
Description: as §3, with “predetermined concentration” for “predetermined concentration,”, “whereupon 15” for “whereupon 10”, “workers and one termite soldier” for “workers”, “for 13” for “for 37”, “calculated by” for “calculated in”, “the following formula.” for “the same manner as in Test Example 1.”
as §1, §2

Coptotermes formosanus [4] = experiment: Test Example 5: treated filter paper in acrylic cup, termite mortality after 7 days; conditions: 168 h
Description: (§4) A filter paper having a diameter of 80 mm was placed in a cylindrical cup made of acrylic resin having a diameter of 80 mm and a height of 60 mm (i.e. a cup having a hole with a diameter of 10 mm formed in the bottom and having hard plaster (Dental Stone) set at the bottom in a thickness of 10 mm), and 1 ml of a solution containing a sample compound in a predetermined concentration, was dropped thereon. Then, nine termite workers and one termite soldier (Coptotermes formosanus) were released thereon. The cup was placed in a container having wet cotton laid over the bottom, and the container was maintained at room temperature of 25° C. for 7 days, whereupon the mortality of termites in the cup was examined.

Reticulitermes speratus [5] = experiment: Test Example 6: treated filter paper in acrylic cup, termite mortality after 7 days; conditions: 168 h
Description: as §4, with “ten” for “nine”, “(Reticulitermes speratus)” for “(Coptotermes formosanus)”

Priplaneta americana = experiment: Test Example 12: mouse feed poison bait, mortality with time; conditions: bait 1%
Description: 1 g of feeding stuff for mice was treated with 0.5 ml of an acetone solution containing 10 mg of a sample compound and put in a constant temperature chamber at 40° C. for 20 hours to sufficiently evaporate acetone, whereby a poison bait chemical containing 1% of the sample compound was prepared. Then, this poison bait chemical was put into a cup together with a wet cotton, and 10 […] (Priplaneta americana) were released and kept at 25° C. in a breeding room, whereby the mortality was examined as the time passed.

Reticulitermes speratus [6] = experiment: Test Example 9: treated filter paper in acrylic cup, termite mortality 5 and 20 days later; conditions: 1000 ppm
Description: as §4, with “ten” for “nine”, “(Reticulitermes speratus)” for “(Coptotermes formosanus)”, “C., and 5 days later and 20 days later,” for “C. for 7 days, whereupon”

Lasius japonicus = experiment: Test Example 11: powdered skim milk poison bait, controlling effect on ants 4 days later; conditions: bait concentration 1%
Description: 1 g of powdered skim milk was treated with 1 ml of an acetone solution containing 10 mg of a sample compound and put in a constant temperature chamber at 40° C. for 20 hours to sufficiently evaporate acetone. In this manner, a poison bait chemical containing 1% of an active ingredient compound, was prepared. Then, this poison bait chemical was put into a cup together with a wet cotton, and 15 ants (Lasius japonicus) were released. 4 Days later, the mortality was examined. Here, when the mortality 4 days later was at least 40%, the controlling effect was rated to be positive.

Reticulitermes speratus [7] = experiment: Test Example 2: treated filter paper in Petri dish, termite mortality after 17 days; conditions: 408 h
Description: as §1, §2
as §3, with “evaporated” for “evaporated,”, “15” for “10”, “workers and one termite soldier” for “workers”, “17 days. Then,” for “37 days, whereupon”

**Q.** What does the source list for `Cc1c(COC(=O)[C@@H]2[C@H](/C=C(\Cl)C(F)(F)F)C2(C)C)cccc1-c1ccccc1` (racemic) [Bifenthrin]?
**A.** Mortality (Coptotermes formosanus [1]; Bifenthrin 0.25 ppm alone, 28th day): 0%; mortality at 0.25 ppm (Coptotermes formosanus [1]; Coptotermes formosanus): 0%; mortality at 0.5 ppm (Coptotermes formosanus [1]; Coptotermes formosanus): 10%; mortality at 1 ppm (Coptotermes formosanus [1]; Coptotermes formosanus): 40%

**Q.** Which results are given for `O=C(NC(=O)c1c(F)cccc1F)Nc1cc(Cl)c(Oc2ncc(C(F)(F)F)cc2Cl)c(Cl)c1` [Chlorfluazuron]?
**A.** mortality at 500 ppm (Reticulitermes speratus [2]; Chlorfluazuron 500 ppm alone): 30%; mortality at 1000 ppm (Reticulitermes speratus [2]; Chlorfluazuron 1000 ppm alone): 50%; mortality at 2000 ppm (Reticulitermes speratus [2]; Chlorfluazuron 2000 ppm alone): 50%; mortality at 4000 ppm (Reticulitermes speratus [2]; Chlorfluazuron 4000 ppm alone): 50%; mortality at 1000 ppm (Reticulitermes speratus [3]): 0%; mortality at 2000 ppm (Reticulitermes speratus [3]): 33%; mortality at 4000 ppm (Reticulitermes speratus [3]): 53%; mortality at 8000 ppm (Reticulitermes speratus [3]): 60%; mortality at 500 ppm (Coptotermes formosanus [1]; Coptotermes formosanus): 20%; mortality at 1000 ppm (Coptotermes formosanus [1]; Coptotermes formosanus): 30%; mortality at 2000 ppm (Coptotermes formosanus [1]; Coptotermes formosanus): 30%

**Q.** How did the mortality at 500 ppm (Coptotermes formosanus [4]) turn out when `CCOP(=S)(OCC)Oc1nc(Cl)c(Cl)cc1Cl` [Chlorpyrifos, reference compound] was run?
**A.** The mortality at 500 ppm was 100%.

**Q.** What about the mortality at 1000 ppm (Coptotermes formosanus [4]) of the same compound?
**A.** The mortality at 1000 ppm was 100%.

**Q.** What about the mortality at 1000 ppm (Reticulitermes speratus [5]) of the same compound?
**A.** The mortality at 1000 ppm was 100%.

**Q.** What about the Mortality (Priplaneta americana; 1 Day later) of the same compound?
**A.** The Mortality was 100%.

**Q.** And the Mortality (Priplaneta americana; 8 Days later)?
**A.** Its Mortality is 100%.

**Q.** What about the Mortality (Priplaneta americana; 48 Days later) of the same compound?
**A.** The Mortality was 100%.

**Q.** What does the source list for `CC(=NN=C(Cc1ccc(C(F)(F)F)cc1)c1ccc(Cl)cc1)N(C)C` [Compound No. II-1, [4′-chloro-2-(4-trifluoromethylphenyl)acetophenone]N′-[1-(dimethylamino)ethylidene]hydrazone]?
**A.** Mortality (Reticulitermes speratus [6]; 5 Days later): 0%; Mortality (Reticulitermes speratus [6]; 20 Days later): 100%

**Q.** What does the source list for `CCOC(=O)NN=C(Cc1ccc(C(F)(F)F)cc1)c1ccc(Cl)cc1` [Compound No. II-3]?
**A.** Mortality (Priplaneta americana; 1 Day later): 0%; Mortality (Priplaneta americana; 8 Days later): 100%; Mortality (Priplaneta americana; 48 Days later): 100%; Mortality (Reticulitermes speratus [6]; 5 Days later): 0%; Mortality (Reticulitermes speratus [6]; 20 Days later): 100%

**Q.** Which results are given for `CC(=NN=C(Cc1ccc(C(C)(C)C)cc1)c1ccc(C)cc1)N(C)C` [Compound No. II-6, [4′-methyl-2-(4-tert-butylphenyl)acetophenone]N′-[1-(dimethylamino)ethylidene]hydrazone]?
**A.** Controlling effect (Lasius japonicus): Positive (when the mortality 4 days later was at least 40%, the controlling effect was rated to be positive); Mortality (Reticulitermes speratus [6]; 5 Days later): 70%; Mortality (Reticulitermes speratus [6]; 20 Days later): 100%

**Q.** Which Mortality (Reticulitermes speratus [6]; 5 Days later) does the source give for `CC(N)=NN=C(Cc1ccc(C(F)(F)F)cc1)c1ccc(Cl)cc1` [Compound No. II-7, [4′-chloro-2-(4-trifluoromethylphenyl)acetophenone]N′-[1-aminoethylidene]hydrazone] here?
**A.** Its Mortality is 100%.

**Q.** And the Mortality (Reticulitermes speratus [6]; 20 Days later)?
**A.** The Mortality was 100%.

**Q.** With `O=C(NC(=O)c1c(F)cccc1F)Nc1cc(Cl)c(OC(F)(F)C(F)F)c(Cl)c1` [Hexaflumuron] as the compound, how does the mortality at 1000 ppm (Reticulitermes speratus [7]) read?
**A.** The mortality at 1000 ppm was 40%.

**Q.** What about the mortality at 2000 ppm (Reticulitermes speratus [7]) of the same compound?
**A.** Its mortality at 2000 ppm is 40%.

**Q.** And the mortality at 4000 ppm (Reticulitermes speratus [7])?
**A.** The mortality at 4000 ppm was 20%.

**Q.** What about the mortality at 8000 ppm (Reticulitermes speratus [7]) of the same compound?
**A.** The mortality at 8000 ppm was 33%.
